#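 GI50 marks 50% less growth. TGI marks complete inhibition of growth.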
# What was measured:
# Assay in all cases: NCI-60 cell line screen, 384-well format
# SK-MEL-5 melanoma = tested on: SK-MEL-5 melanoma
# HS 578T breast = tested on: HS 578T breast
# NCI-H322M lung = tested on: NCI-H322M lung
# T-47D breast = tested on: T-47D breast
# SF-268 CNS = tested on: SF-268 CNS
# NCI-H522 lung = tested on: NCI-H522 lung
# MDA-MB-231 breast = tested on: MDA-MB-231 breast
# M14 melanoma = tested on: M14 melanoma
# SNB-19 CNS = tested on: SNB-19 CNS
# HOP-92 NSCLC = tested on: HOP-92 NSCLC
# HCT-15 colon = tested on: HCT-15 colon
# RPMI-8226 leukemia = tested on: RPMI-8226 leukemia
# HCC-2998 colon = tested on: HCC-2998 colon
# MALME-3M melanoma = tested on: MALME-3M melanoma
# IGROV1 ovarian = tested on: IGROV1 ovarian
# OVCAR-8 ovarian = tested on: OVCAR-8 ovarian
# DU-145 prostate = tested on: DU-145 prostate
# NCI-H460 NSCLC = tested on: NCI-H460 NSCLC
# CCRF-CEM leukemia = tested on: CCRF-CEM leukemia
# LOX IMVI melanoma = tested on: LOX IMVI melanoma
# BT-549 breast = tested on: BT-549 breast
# EKVX NSCLC = tested on: EKVX NSCLC
# SW-620 colon = tested on: SW-620 colon
# UO-31 renal = tested on: UO-31 renal
# MCF7 breast = tested on: MCF7 breast
# SF-539 CNS = tested on: SF-539 CNS
# CAKI-1 renal = tested on: CAKI-1 renal
# HT29 colon = tested on: HT29 colon
# SR leukemia = tested on: SR leukemia
# MDA-MB-435 melanoma = tested on: MDA-MB-435 melanoma
# A498 renal = tested on: A498 renal
# KM12 colon = tested on: KM12 colon
# A549 NSCLC = tested on: A549 NSCLC
# K-562 leukemia = tested on: K-562 leukemia
# SK-OV-3 ovarian = tested on: SK-OV-3 ovarian
# MDA-MB-468 breast = tested on: MDA-MB-468 breast
# RXF 393 renal = tested on: RXF 393 renal
# SK-MEL-28 melanoma = tested on: SK-MEL-28 melanoma
# OVCAR-5 ovarian = tested on: OVCAR-5 ovarian
# NCI-H226 lung = tested on: NCI-H226 lung
# OVCAR-4 ovarian = tested on: OVCAR-4 ovarian
# SNB-75 CNS = tested on: SNB-75 CNS
# UACC-62 melanoma = tested on: UACC-62 melanoma
# HOP-62 NSCLC = tested on: HOP-62 NSCLC
# MOLT-4 leukemia = tested on: MOLT-4 leukemia
# PC-3 prostate = tested on: PC-3 prostate
# TK-10 renal = tested on: TK-10 renal
# 786-0 renal = tested on: 786-0 renal
# SN12C renal = tested on: SN12C renal
# NCI/ADR-RES ovarian = tested on: NCI/ADR-RES ovarian
# COLO 205 colon = tested on: COLO 205 colon
# UACC-257 melanoma = tested on: UACC-257 melanoma
# SF-295 CNS = tested on: SF-295 CNS
# NCI-H23 lung = tested on: NCI-H23 lung
# ACHN renal = tested on: ACHN renal
# HL-60(TB) leukemia = tested on: HL-60(TB) leukemia
# OVCAR-3 ovarian = tested on: OVCAR-3 ovarian
# U251 glioblastoma = tested on: U251 glioblastoma
compound,measurement,setting,value
Nc1ncnc2c1c(-c1cccc(OCc3ccccc3)c1)cn2C1CC(CN2CCC2)C1 (stereo unspecified),GI50,SK-MEL-5 melanoma,0.704 µM
same,TGI,SK-MEL-5 melanoma,2 µM
same,GI50,HS 578T breast,1.82 µM
same,TGI,HS 578T breast,3.23 µM
same,GI50,NCI-H322M lung,1.65 µM
same,TGI,NCI-H322M lung,4.49 µM
same,GI50,T-47D breast,1.49 µM
same,TGI,T-47D breast,2.9 µM
same,GI50,SF-268 CNS,1.81 µM
same,TGI,SF-268 CNS,3.23 µM
same,GI50,NCI-H522 lung,1.72 µM
same,TGI,NCI-H522 lung,3.12 µM
same,GI50,MDA-MB-231 breast,1.66 µM
same,TGI,MDA-MB-231 breast,3.34 µM
same,GI50,M14 melanoma,1.62 µM
same,TGI,M14 melanoma,2.98 µM
same,GI50,SNB-19 CNS,2.53 µM
same,TGI,SNB-19 CNS,7.28 µM
same,GI50,HOP-92 NSCLC,1.14 µM
same,TGI,HOP-92 NSCLC,2.36 µM
same,GI50,HCT-15 colon,1.28 µM
same,TGI,HCT-15 colon,2.59 µM
same,GI50,RPMI-8226 leukemia,1.83 µM
same,TGI,RPMI-8226 leukemia,3.23 µM
same,GI50,HCC-2998 colon,1.4 µM
same,TGI,HCC-2998 colon,2.72 µM
same,GI50,MALME-3M melanoma,1.06 µM
same,TGI,MALME-3M melanoma,2.25 µM
same,GI50,IGROV1 ovarian,2.18 µM
same,TGI,IGROV1 ovarian,4.87 µM
same,GI50,OVCAR-8 ovarian,1.61 µM
same,TGI,OVCAR-8 ovarian,3.01 µM
same,GI50,DU-145 prostate,2.65 µM
same,TGI,DU-145 prostate,11 µM
same,GI50,NCI-H460 NSCLC,1.34 µM
same,TGI,NCI-H460 NSCLC,2.69 µM
same,GI50,CCRF-CEM leukemia,2.08 µM
same,TGI,CCRF-CEM leukemia,3.52 µM
same,GI50,LOX IMVI melanoma,1.61 µM
same,TGI,LOX IMVI melanoma,2.97 µM
same,GI50,BT-549 breast,1.37 µM
same,TGI,BT-549 breast,2.68 µM
same,GI50,EKVX NSCLC,1.41 µM
same,TGI,EKVX NSCLC,3.1 µM
same,GI50,SW-620 colon,1.33 µM
same,TGI,SW-620 colon,2.63 µM
same,GI50,UO-31 renal,1.61 µM
same,TGI,UO-31 renal,3.02 µM
same,GI50,MCF7 breast,0.36 µM
same,TGI,MCF7 breast,1.68 µM
same,GI50,SF-539 CNS,1.76 µM
same,TGI,SF-539 CNS,3.15 µM
same,GI50,CAKI-1 renal,1.65 µM
same,TGI,CAKI-1 renal,3.22 µM
same,GI50,HT29 colon,0.336 µM
same,TGI,HT29 colon,1.72 µM
same,GI50,SR leukemia,1.65 µM
same,TGI,SR leukemia,3.02 µM
same,GI50,MDA-MB-435 melanoma,1.28 µM
same,TGI,MDA-MB-435 melanoma,2.57 µM
same,GI50,A498 renal,1.49 µM
same,TGI,A498 renal,2.83 µM
same,GI50,KM12 colon,1.82 µM
same,TGI,KM12 colon,3.76 µM
same,GI50,A549 NSCLC,1.55 µM
same,TGI,A549 NSCLC,3.07 µM
same,GI50,K-562 leukemia,1.69 µM
same,TGI,K-562 leukemia,3.1 µM
same,GI50,SK-OV-3 ovarian,1.75 µM
same,TGI,SK-OV-3 ovarian,3.16 µM
same,GI50,MDA-MB-468 breast,1.33 µM
same,TGI,MDA-MB-468 breast,2.63 µM
same,GI50,RXF 393 renal,1.59 µM
same,TGI,RXF 393 renal,2.97 µM
same,GI50,SK-MEL-28 melanoma,1.43 µM
same,TGI,SK-MEL-28 melanoma,2.74 µM
same,GI50,OVCAR-5 ovarian,1.3 µM
same,TGI,OVCAR-5 ovarian,2.86 µM
same,GI50,NCI-H226 lung,1.19 µM
same,TGI,NCI-H226 lung,2.96 µM
same,GI50,OVCAR-4 ovarian,1.89 µM
same,TGI,OVCAR-4 ovarian,4.04 µM
same,GI50,SNB-75 CNS,1.92 µM
same,TGI,SNB-75 CNS,3.52 µM
same,GI50,UACC-62 melanoma,1.51 µM
same,TGI,UACC-62 melanoma,2.84 µM
same,GI50,HOP-62 NSCLC,1.82 µM
same,TGI,HOP-62 NSCLC,3.25 µM
same,GI50,MOLT-4 leukemia,1.77 µM
same,TGI,MOLT-4 leukemia,3.16 µM
same,GI50,PC-3 prostate,1.8 µM
same,TGI,PC-3 prostate,3.46 µM
same,GI50,TK-10 renal,1.61 µM
same,TGI,TK-10 renal,3.24 µM
same,GI50,786-0 renal,1.61 µM
same,TGI,786-0 renal,2.97 µM
same,GI50,SN12C renal,2.31 µM
same,TGI,SN12C renal,5.8 µM
same,GI50,NCI/ADR-RES ovarian,1.76 µM
same,TGI,NCI/ADR-RES ovarian,3.42 µM
same,GI50,COLO 205 colon,0.327 µM
same,TGI,COLO 205 colon,1.44 µM
same,GI50,UACC-257 melanoma,1.13 µM
same,TGI,UACC-257 melanoma,2.35 µM
same,GI50,SF-295 CNS,1.89 µM
same,TGI,SF-295 CNS,3.31 µM
same,GI50,NCI-H23 lung,1.1 µM
same,TGI,NCI-H23 lung,2.49 µM
same,GI50,ACHN renal,1.91 µM
same,TGI,ACHN renal,3.71 µM
same,GI50,HL-60(TB) leukemia,0.182 µM
same,TGI,HL-60(TB) leukemia,1.03 µM
same,GI50,OVCAR-3 ovarian,1.76 µM
same,TGI,OVCAR-3 ovarian,3.45 µM
same,GI50,U251 glioblastoma,1.87 µM
same,TGI,U251 glioblastoma,3.39 µM

# Reference: PubChem BioAssay (NCI)
